Earlier results in patent US12478584B1, “Atomoxetine hydrochloride oral suspension and use thereof” (OWP Pharmaceuticals, Inc., priority 2025, dated 2025).

Conditions: standard temperature and pressure

CNCC[C@@H](Oc1ccccc1C)c1ccccc1.Cl [Atomoxetine, (3R)—N-methyl-3-(2-methylphenoxy)-3-phenylpropan-1-amine]
water solubility: 27.8 mg/mL
